Reference: ChEMBL document CHEMBL4359822, “Design, synthesis of 4,5-diazafluorene derivatives and their anticancer activity via targeting telomeric DNA G-quadruplex” (Eur J Med Chem, 2019)
The source made the active and inactive calls.

Legend:
Format in all cases: functional, cell-based
AGS = test: Antiproliferative activity against human AGS cells at 10 uM incubated for 36 hrs by CCK8 assay
MCF7 = test: Antiproliferative activity against human MCF7 cells at 10 uM incubated for 36 hrs by CCK8 assay
A549 = test: Antiproliferative activity against human A549 cells at 10 uM incubated for 36 hrs by CCK8 assay
HepG2 = test: Antiproliferative activity against human HepG2 cells at 10 uM incubated for 36 hrs by CCK8 assay

Measured: growth inhibition (GI)

Brc1ccc(-c2nn(Cc3ccccc3)cc2C=C2c3cccnc3-c3ncccc32)cc1
active: all assays above

Cc1ccc(-c2nn(Cc3ccccc3)cc2C=C2c3cccnc3-c3ncccc32)cc1
active: all assays above

Clc1ccc(-c2nn(Cc3ccccc3)cc2C=C2c3cccnc3-c3ncccc32)cc1
active: all assays above

Fc1ccc(-c2nn(Cc3ccccc3)cc2C=C2c3cccnc3-c3ncccc32)cc1
active: all assays above

O=[N+]([O-])c1ccc(-n2cc(C=C3c4cccnc4-c4ncccc43)c(-c3ccc(Cl)cc3)n2)c([N+](=O)[O-])c1
active: all assays above

O=[N+]([O-])c1ccc(-n2cc(C=C3c4cccnc4-c4ncccc43)c(-c3ccc(Br)cc3)n2)c([N+](=O)[O-])c1
active: all assays above

Clc1ccc(-c2n[nH]cc2C=C2c3cccnc3-c3ncccc32)cc1
active: all assays above

O=C1C(=C2c3cccnc3-c3ncccc32)SC(=S)N1Cc1nnc(-c2ccc(Cl)cc2)o1
active: all assays above

O=[N+]([O-])c1ccc(-n2cc(C=C3c4cccnc4-c4ncccc43)c(-c3ccc(F)cc3)n2)c([N+](=O)[O-])c1
active: all assays above

Cc1ccc(-c2nn(-c3ccc([N+](=O)[O-])cc3[N+](=O)[O-])cc2C=C2c3cccnc3-c3ncccc32)cc1
active: all assays above

O=C(O)CN1C(=O)C(=C2c3cccnc3-c3ncccc32)SC1=S
active: all assays above

Fc1ccc(-c2n[nH]cc2C=C2c3cccnc3-c3ncccc32)cc1
active: all assays above

Cc1ccc(-c2n[nH]cc2C=C2c3cccnc3-c3ncccc32)cc1
active: all assays above

Cc1ccc(-c2nnc(CN3C(=O)C(=C4c5cccnc5-c5ncccc54)SC3=S)o2)cc1
active: all assays above

Brc1ccc(-c2n[nH]cc2C=C2c3cccnc3-c3ncccc32)cc1
active: all assays above
